Activity calls are given as the source filed them.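 How the source made its calls: active means z-score above 3 at 5 µM with at least 500 cells counted in the well; inconclusive means wells under 500 cells, flagged as cytotoxic or low count; inactive means the rest.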
Test system: MIN6 insulin promoter-GFP reporter, high-content imaging
Assay: insulin promoter activators in MIN6 cells, imaging, high-content screening, mouse beta cells (AID 1625)

| Compound | EC50 |
| --- | --- |
| COc1ccc2c(C)cc(SCC(=O)N(C)C3CCS(=O)(=O)C3)nc2c1 (stereo not given) | > 16 µM (inactive) |
| CCOc1cc(N(CC)CC)ccc1/C=C(/C#N)c1nc2ccccc2[nH]1 | 4.49 µM |
| CN1C(=S)N(c2cccnc2)C(=O)/C1=C\c1ccc(N(C)C)cc1 | > 16 µM (inactive) |
| O=c1oc2cc(O)ccc2cc1-c1nc2c(s1)CCc1ccccc1-2 | 10.2 µM (inactive) |
| CCCN1C(=O)/C(=C/C=C2\N(CC)c3ccccc3C2(C)C)SC1=S | > 16 µM (inactive) |
| Cc1cc(N/N=C/c2ccc([N+](=O)[O-])o2)nc2ccccc12 | > 16 µM (inactive) |
| COc1ccc2c(c1)NC(c1ccc(N(C)C)cc1)c1cccn1-2 (stereo not given) | > 16 µM (inactive) |
| COc1cc2nc(/C=C/c3ccc(N(C)C)cc3)sc2cc1SC | 7.43 µM |
| CN1/C(=C\C=C2/C(=O)Oc3ccccc3C2=O)C(C)(C)c2ccccc21 | 2.58 µM |
| CCN(CC)c1ccc(/C=C(\C#N)C(=O)c2ccc(Br)cc2)cc1 | 12 µM (inactive) |
| CC(C)N1CC=C2C(C#N)=C(N)C(C#N)(C#N)[C@H](c3ccoc3)[C@H]2C1 | 8.51 µM |
| COc1cc2c3nnc(-c4ccc(F)cc4)c-3cn(Cc3ccc(F)cc3)c2cc1OC | 5.41 µM |
| CCC(C)N1C(=O)/C(=C/c2c(NCCCOC(C)C)nc3c(C)cccn3c2=O)SC1=S (stereo not given) | 2.83 µM |
| CCN(CC)c1ccc(/C=C2/SC(=O)N(C(C)C)C2=O)o1 | 4.26 µM |
| CN1CCN(C2=CC3=CC(=C(C#N)C#N)CCC3CC2)CC1 (stereo not given) | 3.41 µM |
| Cc1cc2nc3c(=O)n(C4CCCCC4)c(=O)[nH]c3nc2cc1N | 8.73 µM |
| N#C/C(=C/c1ccc(N2CCOCC2)o1)c1ccc(Cl)cc1 | 9.12 µM |
| Cc1cc(/C=C2/C(=O)N(C)C(=S)N2C)ccc1N1CCCC1 | 1.61 µM |
| O=C(/C=C/c1cn(CC(O)CN2CCCCCC2)c2ccccc12)c1cccs1 (stereo not given) | > 16 µM (inactive) |
| Nc1c(C(=O)c2ccccc2)sc2nsc(SCCN3CCCC3)c12 | 8.41 µM |
| CC(C)OC(=O)CN1C(=O)S/C(=C/c2ccc(N3CCCCC3)o2)C1=O | 1.7 µM |
| O=[N+]([O-])c1ccc(N/N=C/c2c[nH]c3ccccc23)cc1 | 10.8 µM (inactive) |
| CCCN1C(=O)S/C(=C/c2ccc(N3CCOCC3)o2)C1=O | 8.06 µM |
| CC(=O)Nc1cccc(C(=O)/C=C/c2ccc(N(C)C)cc2)c1 | 12.9 µM (inactive) |
| Cc1ccc(CN=Cc2[nH]c3ccc(Br)c(Cl)c3c2O)cc1 | > 16 µM (inactive) |

| Compound | EC50 |
| --- | --- |
| C=CCN1C(=O)/C(=C\C=C2\N(C)c3ccccc3C2(C)C)SC1=S | > 16 µM (inactive) |
| CC[n+]1c(/C=C/C=C/N(C(C)=O)c2ccccc2)sc2cc(OC)ccc21 | 0.887 µM |
| N#C/C(=C\c1ccc(N2CCCCC2)o1)C(N)=O | 10.8 µM (inactive) |
| O=C1S/C(=C\c2ccc(N3CCOCC3)o2)C(=O)N1c1ccccc1 | 12.5 µM (inactive) |
| CCCNC(=O)Cn1c(=O)/c(=C\c2ccc(-c3ccc([N+](=O)[O-])cc3)o2)s/c1=C\C(=O)C(C)(C)C | 0.359 µM |
| C(=C/c1nccc2c1[nH]c1ccccc12)/c1ccc2c(c1)OCO2 | 11.9 µM (inactive) |
| O=C1S/C(=C/c2ccc(N3CCOCC3)o2)C(=O)N1Cc1ccc(F)cc1 | > 16 µM (inactive) |
| Cc1ccc2nc(/C(C#N)=C\c3ccc(N4CCOCC4)o3)[nH]c2c1 | 3.44 µM |
| Cc1ccc(NS(=O)(=O)c2cc([N+](=O)[O-])ccc2N/N=C/c2sc(N3CCOCC3)nc2-c2ccccc2)c(C)c1 | > 16 µM (inactive) |
| Cc1ccc(S(=O)(=O)CCSc2nc(C)cc(C(F)(F)F)c2C#N)cc1 | > 16 µM (inactive) |
| O=c1c(Cl)c2oc3ccccc3nc-2c2ccccc12 | > 16 µM (inactive) |
| Cc1noc(/C=C/c2ccc(-c3ccccc3Cl)o2)c1[N+](=O)[O-] | 5.6 µM |
| O=C1/C(=C/c2ccc(N3CCCC3)cc2)NC(=S)N1C1CC1 | 7.35 µM |
| Cc1oc(C)c2c(=O)ccc3c(c12)OC(N)=C(C#N)C3c1ccc(F)cc1 (stereo not given) | > 16 µM (inactive) |
| N#C/C(=C/c1ccc(N2CCCCCC2)o1)c1ccc(Cl)cc1 | 10.1 µM (inactive) |
| Cn1c(=O)c(NC2CCCCC2)c2c3c(cccc31)C(=O)c1ccccc1-2 | 2.67 µM |
| Cc1oc(C)c2c(=O)ccc3c(c12)OC(N)=C(C#N)C3c1ccccc1Cl (stereo not given) | 11.4 µM (inactive) |
| N#Cc1ccc(-c2ccccc2)nc1SCC(=O)c1cccc(Cl)c1 | > 16 µM (inactive) |
| CCN(CC)c1ccc(/C=C(/C#N)C(=O)NC(C)C)o1 | > 16 µM (inactive) |
| CCCN1CC=C2C(C#N)=C(N)C(C#N)(C#N)C(c3cccc(OC)c3OC)C2C1 (stereo not given) | 7.34 µM |
| N#Cc1cccc(NC(=O)CSc2ccc3c4c(cccc24)C(=O)c2ccccc2-3)c1 | 14.7 µM (inactive) |
| Cc1[nH]c2ccccc2c1/C=N/Nc1ccc([N+](=O)[O-])cc1 | 9.3 µM |
| CCN(CC)c1ccc2cc(-c3nnc(-c4ccccc4)o3)c(=O)oc2c1 | 2.88 µM |
| COc1cccc(/C=N/NC(=O)c2oc3nc(-c4ccccc4)cc(-c4ccco4)c3c2N)c1 | > 16 µM (inactive) |
| N#C/C(=C\c1ccc(N2CCOCC2)o1)C(=O)NCCc1ccccc1 | > 16 µM (inactive) |

| Compound | EC50 |
| --- | --- |
| N#C/C(=C\c1ccc(-c2ccc(C(=O)O)cc2)o1)c1nc2ccccc2[nH]1 | > 16 µM (inactive) |
| N#C/C(=C/c1ccc(N2CCCCC2)o1)C(=O)Nc1ccc2ccccc2c1 | 0.564 µM |
| N#Cc1c(C(F)(F)F)cc(-c2ccccc2)nc1SCc1nc(N)nc(N2CCOCC2)n1 | 3.73 µM |
| N#C/C(=C/c1ccc(N2CCCCC2)o1)c1cccc(F)c1 | 8.75 µM |
| O=c1oc2c3c4c(cc2c(C(F)(F)F)c1CCN1CCOCC1)CCCN4CCC3 | 6.05 µM |
| CCOc1cc([N+](=O)[O-])cc2c1C(=O)Nc1ccccc1O2 | > 16 µM (inactive) |
| N#C/C(=C/c1ccc(-c2ccccc2)o1)c1nc(-c2cccs2)cs1 | 0.98 µM |
| Nc1c(C(=O)N/N=C/c2ccccc2Cl)oc2nc(-c3ccccc3)cc(-c3ccco3)c12 | > 16 µM (inactive) |
| N#CC(C#N)=C1C=C2C=C(N3CCCCC3)CCC2CC1 (stereo not given) | 0.643 µM |
| CN1CC=C2C(C#N)=C(N)C(C#N)(C#N)[C@H](c3cccs3)[C@H]2C1 | 11.1 µM (inactive) |
| Nc1ccc2c(c1)Cc1cc([N+](=O)[O-])ccc1-2 | 9.53 µM |
| CCCN(CCC)c1ccc(/C=C/c2ccc3cc(OCC)ccc3n2)cc1 | > 16 µM (inactive) |
| COCCNC(=S)N/N=C/c1ccc(-c2ccc([N+](=O)[O-])cc2)o1 | > 16 µM (inactive) |
| CC(=O)n1c(C=Nc2ccccc2)c(O)c2ccccc21 | 10.1 µM (inactive) |
| CCOC(=O)Cc1csc(NC(=O)c2sc3nc4c(C)cc(C)cc4cc3c2N)n1 | > 16 µM (inactive) |
| COC(=O)c1cc2c(-c3ccccc3)cc3ccccn3c-2c1C(=O)OC | > 16 µM (inactive) |
| O=[N+]([O-])c1ccc(N/N=C/c2ccc[nH]2)cc1 | > 16 µM (inactive) |
| Nc1c(C(=O)Nc2nc3ccccc3s2)sc2nc(-c3cccs3)ccc12 | 12.8 µM (inactive) |
| C=CCN1C(=O)/C(=C/c2ccc(N3CCOCC3)o2)C(=O)NC1=S | > 16 µM (inactive) |
| COc1cc(OC)c(OC)cc1/C=C1\Oc2cc(OS(C)(=O)=O)ccc2C1=O | > 16 µM (inactive) |
| O=C(N=C1SCC(=O)N1c1ccccc1Cl)c1ccccc1 | > 16 µM (inactive) |
| Cc1cc(N2CCCC2)ccc1/C=C1\NC(=S)N(C)C1=O | 9.87 µM |
| O=S(=O)(Nc1cc2nc3ccccc3nc2n1Cc1ccccc1)c1ccc(Cl)cc1 | 7.17 µM |
| Nc1c(C(=O)Nc2nccs2)sc2nc(-c3cccs3)cc(C(F)(F)F)c12 | 5.91 µM |
| CCN1CC=C2C(C1)C(c1ccc(Cl)s1)C(C#N)=C(N)C2(C#N)C#N (stereo not given) | 8.89 µM |

| Compound | EC50 |
| --- | --- |
| CCN1CC=C2C(C#N)=C(N)C(C#N)(C#N)C(CCc3ccccc3)C2C1 (stereo not given) | 8.02 µM |
| COCCN1C(=O)/C(=C/c2ccc(N3CCCC3)cc2)SC1=S | 12 µM (inactive) |
| Cc1c(N=C2N=C(NC(=O)c3cccs3)c3ccccc32)c(=O)n(-c2ccccc2)n1C | 13.9 µM (inactive) |
| CCCCNc1ccc2c3c(cccc13)C(=O)N(CCCC)C2=O | 1.69 µM |
| COc1cccc(C2C3CN(C)CC=C3C(C#N)=C(N)C2(C#N)C#N)c1OC (stereo not given) | 12.3 µM (inactive) |
| Cc1nn(C)cc1N1C(=O)c2cccc3c(N)ccc(c23)C1=O | > 16 µM (inactive) |
| Cc1ccc(/C(C#N)=C\c2ccc(N3CCOCC3)o2)cc1 | > 16 µM (inactive) |
| CC(=O)Nc1sc(/C(C#N)=C\c2cccc(Cl)c2)nc1-c1ccc(C)cc1 | 8.92 µM |
| COc1cc(/C=C(\C#N)c2nc3ccccc3o2)ccc1O | > 16 µM (inactive) |
| CCOC(=O)c1c(-c2ccc(C)cc2)csc1NC(=O)/C(C#N)=C/c1ccc(O)c(OC)c1 | > 16 µM (inactive) |
| Cc1ccnc(N/C=C(\C#N)c2nc(-c3cccc(Br)c3)cs2)c1 | > 16 µM (inactive) |
| O=[N+]([O-])c1ccc(/C=C/C2=NN(c3ccccc3)C(c3ccco3)C2)o1 (stereo not given) | > 16 µM (inactive) |
| CCCNc1c(F)c(F)c2c(C)c3ccccc3nc2c1F | 8.02 µM |
| COc1cc(N2CCCC2)c(OC)cc1/C=C1/NC(=S)NC1=O | 4.73 µM |
| CCCN1C(=O)/C(=C/c2c(N3CCNC(=O)C3CC(=O)OCC)nc3c(C)cccn3c2=O)SC1=S (stereo not given) | > 16 µM (inactive) |
| COc1cc(N2CCCC2)c(OC)cc1/C=C(/C#N)c1cccc(F)c1 | > 16 µM (inactive) |
| CN1CC=C2C(C#N)=C(N)C(C#N)(C#N)C(c3ccncc3)C2C1 (stereo not given) | > 16 µM (inactive) |
| CCN1CC=C2C(C#N)=C(N)C(C#N)(C#N)C(c3cc(Cl)ccc3Cl)C2C1 (stereo not given) | 8.66 µM |
| CCN1CC=C2C(C#N)=C(N)C(C#N)(C#N)[C@H](c3cccc(OC)c3OC)[C@H]2C1 | 3.78 µM |
| COc1ccc2c(n1)Sc1nc3ccccc3nc1N2 | > 16 µM (inactive) |
| Cc1ccc(CNc2ccc3c(c2)OCO3)c(C)c1 | > 16 µM (inactive) |
| COc1ccc(C2C(C(C)=O)=C(C)N=c3s/c(=C\c4cc(C)n(C)c4C)c(=O)n32)c(OC)c1 (stereo not given) | 8.89 µM |
| CCN(CC)c1ccc2cc(/C(N)=N/NC(=O)c3cccs3)c(=O)oc2c1 | 13.8 µM (inactive) |
| Cc1ccc(N2C(=O)c3cccc4c(N5CCN(C)CC5)ccc(c34)C2=O)c2cccnc12 | 10.3 µM (inactive) |
| COc1ccc(/C=C2\CC/C(=C\c3ccc(OC)cc3OC)C2=O)c(OC)c1 | > 16 µM (inactive) |

— PubChem BioAssay AID1625 (Sanford-Burnham Center for Chemical Genomics, 2009)
